Source: patent publication US20260325500A1, “METHODS AND COMPOSITIONS FOR TREATING ACUTE STRESS DISORDER” (BioXcel Therapeutics, Inc., priority 2022, published 2026)
“Also recorded” adds a separate entry of the source. Structures can show the parent of a compound that is named as a salt.

Test system: Yohimbine-induced noradrenergic mediated hyperarousal in Wistar rats
Test: Elevated plus maze, yohimbine-induced noradrenergic mediated hyperarousal (Example 2)
Assay type: in vivo
Excerpt: Background: Yohimbine is an alpha 2-adrenergic receptor antagonist reported to trigger panic attacks in healthy volunteers and to exacerbate symptoms in patients with panic disorder (Charney et al., 1992 Acta Psychiatr Scand., Vol. 86 (4): 273-282). Peripheral administration of Yohimbine causes noradrenergic mediated hyperarousal in rats as assessed by the EPM paradigm.
Rationale: The drug yohimbine is a natural product used to test a specific pathway, noradrenergic-mediated hyper-arousal. It is well established that yohimbine is an alpha2-adrenergic receptor antagonist and activates the locus coeruleus (LC) and increases noradrenergic signaling (the opposite of alpha2-adrenergic agonists like dexmedetomidine and clonidine). Increased LC activity and noradrenergic signaling makes animals anxious and agitated which can be measured by using the elevated plus maze. In the elevated plus maze, rodents were in the closed arms and explored the open arms depending on their anxiety and agitation (rats and mice normally explore their environments extensively when calm). […] This behavior is correlated to increased level of anxiety caused by noradrenergic mediated hyperarousal.
Animal groups: Male: Wistar rats were used in this study and were randomly divided to different experimental groups (12 animals per group).
Study drugs: Four test drugs with different mechanisms of action linked to agitation were chosen to find drugs that are effective in reducing yohimbine-induced agitation: (1) Fluvoxamine (selective serotonin reuptake inhibitor) (2) Dextromethorphan (modulator of NMDA signals) (3) Diazepam (modulator of gamma-aminobutyric acid (GABA) as a positive control) and (4) Latrepirdine (complex pharmacology).
The test drugs were procured from Sigma or Tocris. dextromethorphan from Sigma Aldrich, Cat No. D9684; latrepirdine from Sigma Aldrich, Cat No. D6196 or Tocris Cat No. 3201 diazepam and fluvoxamine Sigma Aldrich, Cat No. F2802 or Tocris, Cat No. 1033. All these test drugs were formulated in sufficient quantity in 0.9% saline except for fluvoxamine, which was formulated in 30% ethanol in 0.9% saline.
Apparatus: Elevated Plus Maze (EPM) was used (FIG. 1). The maze consisted of two closed arms and two open arms forming a cross, with a square center platform. All visible surfaces were made of black acrylic. Each arm of the maze was placed on a support column above the floor. Antistatic black vinyl curtains used for surrounding the EPM to make an enclosure.
Study design and dosing: Yohimbine was administered by intraperitoneal injection (i.p.) at a dose of 2.5 mg/kg (30 minutes prior to study) to induce agitation and the effects were assessed 30 minutes after yohimbine injection by measuring the number of open arm entries and exploration time in the EPM. The test drugs fluvoxamine, dextromethorphan and latrepirdine dihydrochloride hydrate were administered through intramuscular route and, diazepam through intraperitoneal route into the hindleg thigh muscle of rats (60 minutes prior to study; 30 minutes prior to yohimbine administration). Diazepam was injected 30 minutes intraperitonially prior to the assay i.e. along with yohimbine administration. The study design is illustrated in FIG. 2 and table 5.
After the test drug administration, the rat was placed on the platform opposite a closed arm. The number of entries and the time spent in each arm were recorded during a 5 min period. The animal was considered as entered in arm when it placed its four paws into the arm.
Statistical analysis: Analysis of variance (ANOVA) was performed on the result data. Fisher's PLSD was used for pairwise comparisons and p value≤0.05 was considered significant.

[1] = 3 mg/kg and 10 mg/kg, i.m., 60 min prior, yohimbine 2.5 mg/kg i.p.

SMILES: Cc1ccc2c(c1)c1c(n2CCc2ccc(C)nc2)CCN(C)C1 [latrepirdine dihydrochloride hydrate]
- open arm entries and time spent, comparison with diazepam (3 mg/kg and 10 mg/kg, i.m. versus diazepam 1 mg/kg, i.p.): comparable to diazepam
- number of open arm entries [1]: significantly increased number of open arm entries; also recorded: significantly increased the number of entries into the open arms
- time spent in the open arms (exploration time) [1]: increased exploration time; also recorded: significantly increased
- yohimbine-induced noradrenergic mediated hyperarousal (latrepirdine 3 mg/kg and 10 mg/kg, i.m., yohimbine 2.5 mg/kg i.p.): reversed yohimbine-induced noradrenergic mediated hyperarousal
